The text below walks through data of patent US8075902B2, “Diagnosis and treatment of cancer related to human dormancy” (priority 2007, dated 2011).

For data set [1] the following is noted: cited from earlier work.
Data set [2] has as its system AU565 human breast cancer cells. The experiment in a line: Combination study (MTT), AU565 breast cancer cells, Example 6. Type of data set: cell-based. To be noted: 6 days, #3 at 2%, #5 at 4%, #6 at 12.5%, FIG. 4. The text has this: To determine if a combination of antimicrobial agents plus anti-hibernation agents would act synergistically to inhibit cancer, we carried out another study with the human breast cancer cell line AU565 in vitro. We used solution #3 as described above, which included isoniazid (INH), rifampin, ethambutol, minocycline, metronidazole, acyclovir and telithromycin at a 2% concentration of the previous mixture used in Example 5. This was to decrease the cell growth inhibition to ease interpretation of the results. We combined #3 with #6 (curcumin) and #3 with #5 (luteolin) to investigate the synergistic potential of these combinations using the following procedure. […] AU565 human breast cancer cells were routinely maintained in RPMI-1640 medium supplemented with 10% fetal bovine serum, 2 mM sodium pyruvate, and 4.2 g/L glucose. The cells were cultured at 37° C. in an atmosphere of 95% air/5% CO2 and 100% humidity. When cells reached 80% confluence, they were harvested using 0.25% trypsin/EDTA solution. The harvested cells were re-suspended in appropriate medium and reseeded in 96-well plate at a density of 3,000 cells/well/200 μl. Cells were allowed to attach for 24 h, then various concentrations of the test compositions were added to each appropriate well. […] At the end of 6 days, viable cells were measured by MTT assay as described above in Example 2. […]

Regarding `O=C1O[C@H]([C@@H](O)CO)C(O)=C1O` [Ascorbic acid], the half life in data set [1] was 30 min. For `O=c1cc(-c2ccc(O)c(O)c2)oc2cc(O)cc(O)c12` [Sample #5, Luteolin], in data set [2], the “percent inhibition of tumor cell growth” value is on record as 10%. Turning to `COc1cc(/C=C/C(=O)CC(=O)/C=C/c2ccc(O)c(OC)c2)ccc1O` [Sample #6, Curcumin], the “percent inhibition of tumor cell growth” value in data set [2] is listed as 9%.
